Source: patent US20230143604A1, “QW DOSING OF GIP RECEPTOR AGONIST PEPTIDE COMPOUNDS AND USES THEREOF” (TAKEDA PHARMACEUTICAL COMPANY LIMITED, priority 2020, published 2023)
Starred links: 1 amine or outer side, 2 acyl side, 3 side chain; linkers in the order of their positions; H or OH if unused. Non-standard residues stand in square brackets, D forms with d. Residues, ends and D or L forms follow the SMILES beside them. Groups on a side chain read outwards from the residue. *: point of attachment. C18 diacid = O=C(O)CCCCCCCCCCCCCCCCC(=O)*; C17 diacid = O=C(O)CCCCCCCCCCCCCCCC(=O)*; γGlu = O=C(O)[C@H](CCC(=O)[*:2])N[*:1]; NMeY = CN[C@@H](Cc1ccc(O)cc1)C(=O)O; AEEA = NCCOCCOCC(=O)O; Aib = CC(C)(N)C(=O)O

Experiment: physchem
Procedure, shortened: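 3 mg of peptide treated with 100 μL portions of 200 mM phosphate buffer pH 7.4, sonicating/vortexing up to 1 min, with further buffer added until fully dissolved. Solubility then quantified by HPLC.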

[1] = pH 7.4, aqueous buffer, pH 7.4 Phosphate Buffer - Solubility, 200 mM Phosphate buffer pH 7.4
[2] = pH 7.4, solubility in phosphate buffer at pH 7.4, 200 mM phosphate buffer pH 7.4

| Compound | solubility (pH 7.4) | solubility (pH 7.4, aqueous buffer) | solubility [1] | solubility [2] |
| --- | --- | --- | --- | --- |
| CC[C@H](C)[C@H](NC(=O)[C@H](CO)NC(=O)[C@H](Cc1ccc(O)cc1)NC(=O)[C@H](CC(=O)O)NC(=O)[C@H](CO)NC(=O)[C@@H](NC(=O)[C@H](Cc1ccccc1)NC(=O)[C@@H](NC(=O)CNC(=O)[C@H](CCC(=O)O)NC(=O)C(C)(C)NC(=O)[C@H](Cc1ccc(O)cc1)NC)[C@@H](C)O)[C@@H](C)CC)C(=O)N[C@@H](C)C(=O)N[C@@H](CC(C)C)C(=O)N[C@@H](CC(=O)O)C(=O)N[C@@H](CCCNC(=N)N)C(=O)NC(C)(C)C(=O)N[C@@H](CCCCNC(=O)COCCOCCNC(=O)COCCOCCNC(=O)CC[C@H](NC(=O)CC[C@H](NC(=O)CCCCCCCCCCCCCCCCC(=O)O)C(=O)O)C(=O)O)C(=O)N[C@@H](CCC(N)=O)C(=O)NC(C)(C)C(=O)N[C@@H](CC(=O)O)C(=O)N[C@@H](Cc1ccccc1)C(=O)N[C@H](C(=O)N[C@@H](CC(N)=O)C(=O)N[C@@H](Cc1c[nH]c2ccccc12)C(=O)N[C@@H](CC(C)C)C(=O)N[C@@H](CC(C)C)C(=O)N[C@@H](C)C(=O)N[C@@H](CCC(N)=O)C(=O)N[C@@H](CCCNC(=N)N)C(=O)NCC(=O)O)C(C)C [Compound 49] (H-[NMeY][Aib]EGTFISDYSIALDR[Aib]K([AEEA-AEEA-γGlu-γGlu-C18 diacid])Q[Aib]DFVNWLLAQRG-OH) | ≥ 15 mg/mL | ≥ 30 mg/mL |  |  |
| CC[C@H](C)[C@H](NC(=O)[C@H](CCCCN)NC(=O)[C@H](CC(=O)O)NC(=O)[C@H](CC(C)C)NC(=O)C(C)(C)NC(=O)[C@@H](NC(=O)[C@H](CO)NC(=O)[C@H](Cc1ccc(O)cc1)NC(=O)[C@H](CC(=O)O)NC(=O)[C@H](CO)NC(=O)[C@@H](NC(=O)[C@H](Cc1ccccc1)NC(=O)[C@@H](NC(=O)CNC(=O)[C@H](CCC(=O)O)NC(=O)C(C)(C)NC(=O)[C@@H](N)Cc1ccc(O)cc1)[C@@H](C)O)[C@@H](C)CC)[C@@H](C)CC)C(=O)N[C@@H](CCCCNC(=O)COCCOCCNC(=O)COCCOCCNC(=O)CC[C@H](NC(=O)CCCCCCCCCCCCCCCCC(=O)O)C(=O)O)C(=O)N[C@@H](CCC(N)=O)C(=O)N[C@@H](C)C(=O)N[C@@H](CC(=O)O)C(=O)N[C@@H](Cc1ccccc1)C(=O)N[C@H](C(=O)N[C@@H](CC(N)=O)C(=O)N[C@@H](Cc1c[nH]c2ccccc12)C(=O)N[C@@H](CC(C)C)C(=O)N[C@@H](CC(C)C)C(=O)N[C@@H](C)C(=O)N[C@@H](CCC(N)=O)C(=O)N[C@@H](CCCNC(=N)N)C(=O)NCC(=O)O)C(C)C [Compound 172] (H-Y[Aib]EGTFISDYSI[Aib]LDKIK([AEEA-AEEA-γGlu-C18 diacid])QADFVNWLLAQRG-OH) | ≥ 15 mg/mL | ≥ 30 mg/mL |  |  |
| CC[C@H](C)[C@H](NC(=O)[C@H](CO)NC(=O)[C@H](Cc1ccc(O)cc1)NC(=O)[C@H](CC(=O)O)NC(=O)[C@H](CO)NC(=O)[C@@H](NC(=O)[C@H](Cc1ccccc1)NC(=O)[C@@H](NC(=O)CNC(=O)[C@H](CCC(=O)O)NC(=O)C(C)(C)NC(=O)[C@H](Cc1ccc(O)cc1)NC)[C@@H](C)O)[C@@H](C)CC)C(=O)N[C@@H](C)C(=O)N[C@@H](CCCCNC(=O)CNC(=O)CNC(=O)CNC(=O)CNC(=O)CNC(=O)CC[C@H](NC(=O)CCCCCCCCCCCCCCCC(=O)O)C(=O)O)C(=O)N[C@@H](CC(=O)O)C(=O)N[C@@H](CCCNC(=N)N)C(=O)NC(C)(C)C(=O)N[C@@H](C)C(=O)N[C@@H](CCC(N)=O)C(=O)NC(C)(C)C(=O)N[C@@H](CC(=O)O)C(=O)N[C@@H](Cc1ccccc1)C(=O)N[C@H](C(=O)N[C@@H](CC(N)=O)C(=O)N[C@@H](Cc1c[nH]c2ccccc12)C(=O)N[C@@H](CC(C)C)C(=O)N[C@@H](CC(C)C)C(=O)N[C@@H](C)C(=O)N[C@@H](CCC(N)=O)C(=O)N[C@@H](CCCNC(=N)N)C(=O)N1CCC[C@H]1C(=O)N[C@@H](CO)C(=O)N[C@@H](CO)C(=O)NCC(=O)N[C@@H](C)C(=O)N1CCC[C@H]1C(=O)N1CCC[C@H]1C(=O)N1CCC[C@H]1C(=O)N[C@@H](CO)C(N)=O)C(C)C [Compound 22] |  |  | ≥ 30 mg/mL | ≥ 15 mg/mL |
| CC[C@H](C)[C@H](NC(=O)[C@H](Cc1ccccc1)NC(=O)[C@@H](NC(=O)CNC(=O)[C@H](CCC(=O)O)NC(=O)C(C)(C)NC(=O)[C@H](Cc1ccc(O)cc1)NC)[C@@H](C)O)C(=O)N[C@@H](CO)C(=O)N[C@@H](CC(=O)O)C(=O)N[C@@H](Cc1ccc(O)cc1)C(=O)N[C@@H](CO)C(=O)N[C@H](C(=O)NC(C)(C)C(=O)N[C@@H](CCCCNC(=O)COCCOCCNC(=O)COCCOCCNC(=O)CC[C@H](NC(=O)CC[C@H](NC(=O)CCCCCCCCCCCCCCCC(=O)O)C(=O)O)C(=O)O)C(=O)N[C@@H](CC(=O)O)C(=O)N[C@@H](CCCNC(=N)N)C(=O)NC(C)(C)C(=O)N[C@@H](C)C(=O)N[C@@H](CCC(N)=O)C(=O)NC(C)(C)C(=O)N[C@@H](CC(N)=O)C(=O)N[C@@H](Cc1ccccc1)C(=O)N[C@H](C(=O)N[C@@H](CC(N)=O)C(=O)N[C@@H](Cc1c[nH]c2ccccc12)C(=O)N[C@@H](CC(C)C)C(=O)N[C@@H](CC(C)C)C(=O)N[C@@H](C)C(=O)N[C@@H](CCC(N)=O)C(=O)N[C@@H](CCCNC(=N)N)C(=O)N1CCC[C@H]1C(=O)N[C@@H](CO)C(=O)N[C@@H](CO)C(=O)NCC(=O)N[C@@H](C)C(=O)N1CCC[C@H]1C(=O)N1CCC[C@H]1C(=O)N1CCC[C@H]1C(=O)N[C@@H](CO)C(N)=O)C(C)C)[C@@H](C)CC [Compound 14] (H-[NMeY][Aib]EGTFISDYSI[Aib]K([AEEA-AEEA-γGlu-γGlu-C17 diacid])DR[Aib]AQ[Aib]NFVNWLLAQRPSSGAPPPS-NH2) |  |  | ≥ 30 mg/mL | ≥ 15 mg/mL |
| CC[C@H](C)[C@H](NC(=O)[C@H](CO)NC(=O)[C@H](Cc1ccc(O)cc1)NC(=O)[C@H](CC(=O)O)NC(=O)[C@H](CO)NC(=O)[C@@H](NC(=O)[C@H](Cc1ccccc1)NC(=O)[C@@H](NC(=O)CNC(=O)[C@H](CCC(=O)O)NC(=O)C(C)(C)NC(=O)[C@H](Cc1ccc(O)cc1)NC)[C@@H](C)O)[C@@H](C)CC)C(=O)N[C@@H](C)C(=O)N[C@@H](CCCCNC(=O)COCCOCCNC(=O)COCCOCCNC(=O)CC[C@H](NC(=O)CCCCCCCCCCCCCCCCC(=O)O)C(=O)O)C(=O)N[C@@H](CC(=O)O)C(=O)N[C@@H](CCCNC(=N)N)C(=O)N[C@H](C(=O)N[C@@H](Cc1c[nH]cn1)C(=O)N[C@@H](CCC(N)=O)C(=O)N[C@@H](CCC(N)=O)C(=O)N[C@@H](CC(N)=O)C(=O)N[C@@H](Cc1ccccc1)C(=O)N[C@H](C(=O)N[C@@H](CC(N)=O)C(=O)N[C@@H](Cc1c[nH]c2ccccc12)C(=O)N[C@@H](CC(C)C)C(=O)N[C@@H](CC(C)C)C(=O)N[C@@H](C)C(=O)N[C@@H](CCC(N)=O)C(=O)N[C@@H](CCCCN)C(=O)O)C(C)C)[C@@H](C)CC [Compound 245] (H-[NMeY][Aib]EGTFISDYSIAK([AEEA-AEEA-γGlu-C18 diacid])DRIHQQNFVNWLLAQK-OH; C-terminus assumed) |  | ≥ 7.5 mg/mL |  |  |
| CC[C@H](C)[C@H](NC(=O)[C@H](Cc1ccccc1)NC(=O)[C@@H](NC(=O)CNC(=O)[C@H](CCC(=O)O)NC(=O)C(C)(C)NC(=O)[C@H](Cc1ccc(O)cc1)NC)[C@@H](C)O)C(=O)N[C@@H](CO)C(=O)N[C@@H](CC(=O)O)C(=O)N[C@@H](Cc1ccc(O)cc1)C(=O)N[C@@H](CO)C(=O)N[C@H](C(=O)NC(C)(C)C(=O)N[C@@H](CCCCNC(=O)COCCOCCNC(=O)COCCOCCNC(=O)CC[C@H](NC(=O)CCCCCCCCCCCCCCCC(=O)O)C(=O)O)C(=O)N[C@@H](CC(=O)O)C(=O)N[C@@H](CCCNC(=N)N)C(=O)NC(C)(C)C(=O)N[C@@H](C)C(=O)N[C@@H](CCC(N)=O)C(=O)NC(C)(C)C(=O)N[C@@H](CC(N)=O)C(=O)N[C@@H](Cc1ccccc1)C(=O)N[C@H](C(=O)N[C@@H](CC(N)=O)C(=O)N[C@@H](Cc1c[nH]c2ccccc12)C(=O)N[C@@H](CC(C)C)C(=O)N[C@@H](CC(C)C)C(=O)N[C@@H](C)C(=O)N[C@@H](CCC(N)=O)C(=O)N[C@@H](CCCNC(=N)N)C(=O)N1CCC[C@H]1C(=O)N[C@@H](CO)C(=O)N[C@@H](CO)C(=O)NCC(=O)N[C@@H](C)C(=O)N1CCC[C@H]1C(=O)N1CCC[C@H]1C(=O)N1CCC[C@H]1C(=O)N[C@@H](CO)C(N)=O)C(C)C)[C@@H](C)CC [Compound 263] (H-[NMeY][Aib]EGTFISDYSI[Aib]K([AEEA-AEEA-γGlu-C17 diacid])DR[Aib]AQ[Aib]NFVNWLLAQRPSSGAPPPS-NH2) |  |  | ≥ 7.5 mg/mL |  |
| CC[C@H](C)[C@H](NC(=O)[C@H](CO)NC(=O)[C@H](Cc1ccc(O)cc1)NC(=O)[C@H](CC(=O)O)NC(=O)[C@H](CO)NC(=O)[C@@H](NC(=O)[C@H](Cc1ccccc1)NC(=O)[C@@H](NC(=O)CNC(=O)[C@H](CCC(=O)O)NC(=O)C(C)(C)NC(=O)[C@@H](N)Cc1ccc(O)cc1)[C@@H](C)O)[C@@H](C)CC)C(=O)N[C@@H](C)C(=O)NC(C)(C)C(=O)N[C@@H](CC(=O)O)C(=O)N[C@@H](CCCCN)C(=O)N[C@@H](C)C(=O)N[C@@H](CCCCNC(=O)COCCOCCNC(=O)COCCOCCNC(=O)CC[C@H](NC(=O)CCCCCCCCCCCCCCCCC(=O)O)C(=O)O)C(=O)N[C@@H](CCC(N)=O)C(=O)N[C@@H](C)C(=O)N[C@@H](CC(=O)O)C(=O)N[C@@H](Cc1ccccc1)C(=O)N[C@H](C(=O)N[C@@H](CCC(=O)O)C(=O)N[C@@H](Cc1c[nH]c2ccccc12)C(=O)N[C@@H](CC(C)C)C(=O)N[C@@H](CC(C)C)C(=O)N[C@@H](C)C(=O)N[C@@H](CCC(N)=O)C(=O)N[C@@H](CCCNC(=N)N)C(=O)NCC(=O)O)C(C)C [Compound 165] (H-Y[Aib]EGTFISDYSIA[Aib]DKAK([AEEA-AEEA-γGlu-C18 diacid])QADFVEWLLAQRG-OH) | ≥ 15 mg/mL | ≥ 30 mg/mL |  |  |
